SMILES strings stand for the structures.

The term CC50 denotes the concentration that lowers cell viability or growth by half. A word on the IC50: it is the concentration that gives 50% inhibition. A lower IC50 goes with inhibition by little substance.

The nature of data set [1]: Cytotoxicity assay (CellTiter-Glo). The format is cell-based. The conditions noted are these: human, toxicity to the cells, 72 h incubation, CellTiter-Glo cell viability. As to the method:
(§1) Further to the above Examples, representative compounds, prepared according to the examples were tested for potency in an HCV replicon assay (Genotype 1b) for activity against the virus (EC50) and toxicity to the cells (CC50).
(§2) A luciferase-reporter genotype 1b subgenomic replicon cell line, and a genotype 1a full-length replicon cell line were obtained from Apath, LLC, Brooklyn, N.Y.: All cell lines were passaged twice a week by splitting 4 or 6 fold. Cells were maintained in DMEM-high glucose medium (HyClone, Logan, Utah) supplemented with 9% FBS (HyClone), 2 mM glutamine (Invitrogen, Carlsbad, Calif.), 100 U/mL PenStrep (Invitrogen). Media also contained 0.25 mg/mL of the antibiotic G-418 to maintain stable expression of the replicon (Invitrogen). Incubation was performed at 37° C. in 5% CO2 atmosphere. Replicon cell lines were used until they accumulated 15-to-18 passages, after which cells were restarted from the frozen stock. Seeding cell counts were routinely determined using an automatic Cedex HiRes cell counter (Flownomics Analytical Instruments, Madison, Wis.) or manually using INCYTO C—Chip™ Disposable Hemacytometers (Fisher Scientific, Pittsburgh, Pa.).
The cell cytotoxicity assay data was obtained as described below:
Cells were seeded into 96-well plates at a density of 2×10^4 cells per well. 24 h after cell plating, 11 serial 2× compound dilutions, starting with 100 μM, were applied to the testing plates (3 repeats per compound dilution). Each testing plate was run with a “no-compound” control. Incubation with compounds was continued at 37° C. in a CO2 incubator for 72 h. To determine cell viability, the CellTiter-Glo® assay (Promega, Madison, Wis.) was performed according to the manufacturer's protocol. The compound concentration resulting in 50% luminescent signal was reported as the CC50 concentration.
Background: ATP-based viability assays read luminescence as a measure of living cells.

In data set [2] the test system is HCV replicon (Genotype 1b). The data set is described as follows: Luciferase genotype 1b replicon potency assay. The conditions noted are these: Hepatitis C virus, Huh-7; luciferase-reporter genotype 1b subgenomic replicon cell line (Huh7); Renilla luciferase reporter activity. The format is cell-based. On the procedure: as §1
Huh7 Replicon Cell Lines and Cell Culture Conditions:
as §2
The anti-HCV assays were done accordingly:
Luciferase Genotype 1b Replicon Potency Assay.
Replicon cells were seeded into white 96-well plates (Nunc/VWR) at a density of 2×10^4 cells/well in medium without G-418. A Stacker Multidrop Liquid Dispenser (MTX Lab Systems, Vienna, Va.) was employed to ensure uniform and fast cell seeding into multiple plates. 18-24 h after cell plating, inhibitors were added and cells were incubated for additional 24, 48, or 72 h (as indicated). Compounds were tested in triplicates and quadruplicates at 3× or 4× serial dilutions over a range of 0.0001-to-10 μM concentrations. HCV replication was monitored by Renilla luciferase reporter activity assay using Renilla luciferase reporter (Promega, Madison, Wis.) and a Veritas Luminometer (Turner Biosystems, Sunnyvale, Calif.). 50% and 90% inhibitory concentration (IC50 and IC90) values were calculated as the concentration of compound that results correspondingly in 50% and 90% decreases in the reporter expression as compared to untreated cells. The values were determined by non-linear regression (four-parameter sigmoidal curve fitting) analysis.
In general terms: Replicon systems follow genome replication, usually without infectious particles.

The mark [3] stands for this setting: Huh7 HCV genotype 1b replicon cells.

`COc1nc(N)nc2c1nc(I)n2[C@@H]1O[C@H](COP(=O)(N[C@@H](C)C(=O)OC2CCCCC2)N[C@@H](C)C(=O)OC2CCCCC2)[C@@H](O)[C@@]1(C)O` [Example 26, (2S,2′S)-Dicyclohexyl 2,2′-((((2R,3R,4R,5R)-5-(2-Amino-8-iodo-6-methoxy-9H-purin-9-yl)-3,4-dihydroxy-4-methyltetrahydrofuran-2-yl)methoxy)phosphoryl)bis(azanediyl)dipropanoate]: half-maximal cytotoxicity in data set [1] (setting [3]) (CC50 at 72 h) was put at 54 µM. Besides, in data set [2], the IC50 amounted to 0.13 µM.
The corresponding values for `COc1nc(N)nc2c1nc(Cl)n2[C@@H]1O[C@H](CO)[C@@H](O)[C@@]1(C)O` [Example 6, (2R,3R,4R,5R)-2-(2-Amino-8-chloro-6-methoxy-9H-purin-9-yl)-5-(hydroxymethyl)-3-methyltetrahydrofuran-3,4-diol] are more than 100 µM and more than 100 µM.
`COc1nc(N)nc2c1nc(I)n2[C@@H]1O[C@H](COP(=O)(N[C@@H](C)C(=O)OCC(C)(C)C)Oc2cccc3ccccc23)[C@@H](O)[C@@]1(C)O` (stereo partly drawn) [Example 12, (2S)-Neopentyl 2-((((2R,3R,4R,5R)-5-(2-Amino-8-iodo-6-methoxy-9H-purin-9-yl)-3,4-dihydroxy-4-methyltetrahydrofuran-2-yl)methoxy)(naphthalen-1-yloxy)phosphorylamino)propanoate] came in with a CC50 at 72 h in data set [1] of 14 µM. The compound also showed an IC50 in data set [2] of 0.02 µM.
`COc1nc(N)nc2c1nc(Cl)n2[C@@H]1O[C@H](COP(=O)(N[C@@H](C)C(=O)OCC(C)(C)C)N[C@@H](C)C(=O)OCC(C)(C)C)[C@@H](O)[C@@]1(C)O` [Example 25, (2S,2′S)-Neopentyl 2,2′-((((2R,3R,4R,5R)-5-(2-Amino-8-chloro-6-methoxy-9H-purin-9-yl)-3,4-dihydroxy-4-methyltetrahydrofuran-2-yl)methoxy)phosphoryl)bis(azanediyl)dipropanoate] yielded a CC50 at 72 h in data set [1] (setting [3]) of more than 100 µM. In addition, the half-maximal inhibitory concentration (IC50) in data set [2] came to 10 µM.
The compound `COc1nc(N)nc2c1nc(Br)n2[C@@H]1O[C@H](COP(=O)(N[C@@H](C)C(=O)OCC(C)(C)C)Oc2cccc3ccccc23)[C@@H](O)[C@@]1(C)O` (stereo partly drawn) [Example 13, (2S)-Neopentyl 2-((((2R,3R,4R,5R)-5-(2-Amino-8-bromo-6-methoxy-9H-purin-9-yl)-3,4-dihydroxy-4-methyltetrahydrofuran-2-yl)methoxy)(naphthalen-1-yloxy)phosphorylamino)propanoate] came in with a CC50 at 72 h in data set [1] of 60 µM. Further, the IC50 in data set [2] turned out to be 15 µM.
With `COc1nc(N)nc2c1nc(I)n2[C@@H]1O[C@H](COP(=O)(N[C@@H](C)C(=O)OCc2ccc(F)cc2F)Oc2cccc3ccccc23)[C@@H](O)[C@@]1(C)O` (stereo partly drawn) [Example 8, (2S)-2,4-Difluorobenzyl 2-((((2R,3R,4R,5R)-5-(2-Amino-8-iodo-6-methoxy-9H-purin-9-yl)-3,4-dihydroxy-4-methyltetrahydrofuran-2-yl)methoxy)(naphthalen-1-yloxy)phosphorylamino)propanoate], in data set [1], the half-maximal cytotoxic concentration (CC50) at 72 h stood at 8.1 µM. This compound showed an IC50 in data set [2] of 0.009 µM.
Compound `COc1nc(N)nc2c1nc(I)n2[C@@H]1O[C@H](COP(=O)(N[C@@H](C)C(=O)OCc2ccccc2)Oc2cccc3ccccc23)[C@@H](O)[C@@]1(C)O` (stereo partly shown) [Example 7] gave a CC50 at 72 h in data set [1] of 18 µM. Besides, it took 0.031 µM to reach half-maximal inhibition in data set [2] (IC50).
`COc1nc(N)nc2c1nc(I)n2[C@@H]1O[C@H](COP(=O)(N[C@@H](C)C(=O)OCCC(C)(C)C)N[C@@H](C)C(=O)OCCC(C)(C)C)[C@@H](O)[C@@]1(C)O` [Example 22, (2S,2′S)-Bis(3,3-Dimethylbutyl) 2,2′-((((2R,3R,4R,5R)-5-(2-Amino-8-iodo-6-methoxy-9H-purin-9-yl)-3,4-dihydroxy-4-methyltetrahydrofuran-2-yl)methoxy)phosphoryl)bis(azanediyl)dipropanoate] showed a CC50 at 72 h in data set [1] (setting [3]) of 11 µM. The same compound displayed an IC50 in data set [2] of 0.072 µM.
Take `COc1nc(N)nc2c1nc(I)n2[C@@H]1O[C@H](COP(=O)(N[C@@H](C)C(=O)OCC(C)(C)C)N[C@@H](C)C(=O)OCC(C)(C)C)[C@@H](O)[C@@]1(C)O` [Example 23, (2S,2′S)-Neopentyl 2,2′-((((2R,3R,4R,5R)-5-(2-Amino-8-iodo-6-methoxy-9H-purin-9-yl)-3,4-dihydroxy-4-methyltetrahydrofuran-2-yl)methoxy)phosphoryl)bis(azanediyl)dipropanoate]: the CC50 at 72 h in data set [1] (setting [3]) was determined as 53 µM. Also, the IC50 in data set [2] is 0.11 µM.
For `COc1nc(N)nc2c1nc(I)n2[C@@H]1O[C@H](COP(=O)(N[C@@H](C)C(=O)OC2CCC2)Oc2cccc3ccccc23)[C@@H](O)[C@@]1(C)O` (stereo partly drawn) [Example 15, (2S)-Cyclobutyl 2-((((2R,3R,4R,5R)-5-(2-Amino-8-iodo-6-methoxy-9H-purin-9-yl)-3,4-dihydroxy-4-methyltetrahydrofuran-2-yl)methoxy)(naphthalen-1-yloxy)phosphorylamino)propanoate], the cytotoxic concentration (CC50) at 72 h in data set [1] amounted to 6.8 µM. For the same compound, half-maximal inhibition in data set [2] (IC50) required 0.01 µM.
`COc1nc(N)nc2c1nc(Br)n2[C@@H]1O[C@H](CO)[C@@H](O)[C@@]1(C)O` [Example 5, (2R,3R,4R,5R)-2-(2-Amino-8-bromo-6-methoxy-9H-purin-9-yl)-5-(hydroxymethyl)-3-methyltetrahydrofuran-3,4-diol] displayed a CC50 at 72 h in data set [1] (setting [3]) of more than 100 µM. For the same compound, the IC50 in data set [2] is more than 100 µM.
In turn, `COc1nc(N)nc2c1nc(Cl)n2[C@@H]1O[C@H](COP(=O)(N[C@@H](C)C(=O)OCC(C)(C)C)Oc2cccc3ccccc23)[C@@H](O)[C@@]1(C)O` (stereo partly drawn) [Example 14, (2S)-Neopentyl 2-((((2R,3R,4R,5R)-5-(2-Amino-8-chloro-6-methoxy-9H-purin-9-yl)-3,4-dihydroxy-4-methyltetrahydrofuran-2-yl)methoxy)(naphthalen-1-yloxy)phosphorylamino)propanoate] came in with a CC50 at 72 h in data set [1] of 60 µM. In data set [2], this compound returned an IC50 of more than 10 µM.
For the compound `COc1nc(N)nc2c1nc(I)n2[C@@H]1O[C@H](COP(=O)(N[C@H](C(=O)OCc2ccccc2)C(C)C)Oc2cccc3ccccc23)[C@@H](O)[C@@]1(C)O` (stereo partly drawn) [Example 20, (2S)-Benzyl 2-((((2R,3R,4R,5R)-5-(2-Amino-8-iodo-6-methoxy-9H-purin-9-yl)-3,4-dihydroxy-4-methyltetrahydrofuran-2-yl)methoxy)(naphthalen-1-yloxy)phosphorylamino)-3-methylbutanoate], in data set [1], it took 25 µM to reach half-maximal cytotoxicity (CC50 at 72 h). Besides, inhibition in data set [2] was half-maximal at 0.14 µM (IC50).
For `COc1nc(N)nc2c1nc(Br)n2[C@@H]1O[C@H](COP(=O)(N[C@@H](C)C(=O)OCC(C)(C)C)N[C@@H](C)C(=O)OCC(C)(C)C)[C@@H](O)[C@@]1(C)O` [Example 24, (2S,2′S)-Neopentyl 2,2′-((((2R,3R,4R,5R)-5-(2-Amino-8-bromo-6-methoxy-9H-purin-9-yl)-3,4-dihydroxy-4-methyltetrahydrofuran-2-yl)methoxy)phosphoryl)bis(azanediyl)dipropanoate], the CC50 at 72 h in data set [1] (setting [3]) was more than 100 µM. In data set [2], this compound showed an IC50 of more than 40 µM.
`CCCOC(=O)[C@H](C)NP(=O)(OC[C@H]1O[C@@H](n2c(I)nc3c(OC)nc(N)nc32)[C@](C)(O)[C@@H]1O)Oc1cccc2ccccc12` (stereo partly drawn) [Example 9, (2S)-Propyl 2-((((2R,3R,4R,5R)-5-(2-Amino-8-iodo-6-methoxy-9H-purin-9-yl)-3,4-dihydroxy-4-methyltetrahydrofuran-2-yl)methoxy)(naphthalen-1-yloxy)phosphorylamino)propanoate] registered a cytotoxic concentration (CC50) at 72 h in data set [1] of 6 µM. This compound yielded an IC50 in data set [2] of 0.009 µM.
In data set [1], `CCCCOC(=O)[C@H](C)NP(=O)(OC[C@H]1O[C@@H](n2c(I)nc3c(OC)nc(N)nc32)[C@](C)(O)[C@@H]1O)Oc1cccc2ccccc12` (stereo partly drawn) [Example 10, (2S)-Butyl 2-((((2R,3R,4R,5R)-5-(2-Amino-8-iodo-6-methoxy-9H-purin-9-yl)-3,4-dihydroxy-4-methyltetrahydrofuran-2-yl)methoxy)(naphthalen-1-yloxy)phosphorylamino)propanoate] showed a CC50 at 72 h of 7.9 µM. Besides, 0.011 µM corresponded to half-maximal inhibition in data set [2] (IC50).
Consider `COc1nc(N)nc2c1nc(I)n2[C@@H]1O[C@H](CO)[C@@H](O)[C@@]1(C)O` [Example 3, (2R,3R,4R,5R)-2-(2-Amino-8-iodo-6-methoxy-9H-purin-9-yl)-5-(hydroxymethyl)-3-methyltetrahydrofuran-3,4-diol], for which the CC50 at 72 h in data set [1] (setting [3]) is more than 100 µM. In data set [2], inhibition was half-maximal at 6.1 µM (IC50).

For the origin of these results see patent US9351989B2, “Substituted purine nucleosides, phosphoroamidate and phosphorodiamidate derivatives for treatment of viral infections” (INHIBITEX, INC., priority 2010, dated 2016).
